Marks after values point to notes of the source that are not given here.
Columns and labels:
Vero cells = assay: Cytotoxicity on Vero cells (PrestoBlue); format: cell-based; conditions: for Percent Cell Death: African green monkey, 48 h
Description: Cells. Vero cells (American Type Culture Collection (ATCC), Manassas, VA, CCL-81) were maintained in medium 199 (Sigma Chemical Company, St. Louis, MO) that was supplemented with 8% fetal bovine serum (Invitrogen, Carlsbad, CA), 1.25 μg/mL fungizone (Invitrogen, Carlsbad, CA) and penicillin-streptomycin, 1000 U/mL and 1 mg/mL respectively (Sigma Chemical Company, St. Louis, MO). Cells were passed weekly using 0.1% trypsin (Sigma Chemical Company, St. Louis, MO) to detach the cells from the flasks. Cell quantification was done by trypan blue exclusion.
Cytotoxicity and Virus Inhibition. All ginsenosides, isomers, and protopanaxadiols were evaluated for toxic effects on Vero cells prior to anti-viral testing. Cells were seeded at 5000 cells/well in a black 96-well plate with clear bottom in a volume of 100 μL and allowed to attach for 24 hours. […] Each dilution was tested in three wells and all assays were repeated three times. Following a 48 hour-incubation at 37° C. in 5% CO2, 11 μL of PrestoBlue (Invitrogen, Carlsbad, Calif.) was added to each well and the plate was incubated for an additional 30 minutes. PrestoBlue determines cell viability by changing from blue to red as resazurin is reduced to resorufin by viable cells. Following the PrestoBlue incubation, fluorescence was determined by spectrophotometric reading using Soft Max Pro (Molecular Diagnostics, San Jose, Calif., USA).
(§1) For cytotoxicity testing, 4 μL of dilutions of the ginsenosides or protopanaxadiols were added to 396 μL of medium 199 and 100 μL of this mixture was added to each of three wells. For anti-viral testing, 4 μL of the non-toxic reagent and 4 μL of HSV-1 or HSV-2 diluted to an MOI of 0.1 were added to 392 μL of medium 199 and 100 μL of this mixture was added to each of three wells. Virus inhibition was determined by comparing the cell death of reagent-exposed cells with cell death of control cells only receiving virus. The 50% inhibitory concentration (IC50) was determined through a series of two-fold dilutions and calculation by linear regression analysis.

HSV-1 [1] = assay: Virus inhibition, HSV-1 on Vero cells (PrestoBlue); format: cell-based, herpes simplex virus type 1 (MacIntyre strain)
Description: (§2) Viruses and Quantification. Herpes simplex virus type 1 (HSV-1, MacIntyre strain, ATCC, VR-539) or herpes simplex virus type 2 (HSV-2, ATCC, VR-734) were used in these studies. Virus titer was determined by plaque assay. Briefly, following 2 hour-adsorption of various virus dilutions onto a Vero cell monolayer in a 24-well plate, the medium was removed and cells were overlaid with 1.5% carboxymethylcellulose (Sigma Chemical Company, St. Louis, Mo.) and incubated 48 hours at 37° C. with 5% CO2. After incubation, cells were fixed with methanol, stained with Giemsa (Sigma Chemical Company, St. Louis, Mo.) and plaques were counted. Each virus dilution was prepared in quadruplicate.
Cytotoxicity and Virus Inhibition. All ginsenosides, isomers, and protopanaxadiols were evaluated for toxic effects on Vero cells prior to anti-viral testing. Cells were seeded at 5000 cells/well in a black 96-well plate with clear bottom in a volume of 100 μL and allowed to attach for 24 hours. The P. ginseng compounds were prepared in DMSO at 100 μM and were taken through serial two-fold dilutions to determine the concentration when the rate of cell death was less than 10% compared to control, untreated cells. Each dilution was tested in three wells and all assays were repeated three times. Following a 48 hour-incubation at 37° C. in 5% CO2, 11 μL of PrestoBlue (Invitrogen, Carlsbad, Calif.) was added to each well and the plate was incubated for an additional 30 minutes. PrestoBlue determines cell viability by changing from blue to red as resazurin is reduced to resorufin by viable cells. Following the PrestoBlue incubation, fluorescence was determined by spectrophotometric reading using Soft Max Pro (Molecular Diagnostics, San Jose, Calif., USA).
as §1

HSV-1 [2] = assay: Plaque reduction of HSV-1 on Vero cell monolayer; format: cell-based, herpes simplex virus type 1 (MacIntyre strain); conditions: valacyclovir 16 μM, 20(S)-Rg3 50 μM, about 50 PFU/well, 48 hours; for Number of Plaques: ± standard error
Description: as §2
The plaque assay procedure also was used to evaluate the percent plaque reduction; the only procedural change was that a constant virus concentration was used (50 plaque forming units (PFU)/well). Plaque reduction was measured by comparing the control (virus only), with valacyclovir (16 μM) with virus or 20(S)-Rg3 (50 μM) with virus. Sample wells were evaluated in quadruplicate. Following the 2 hour-virus adsorption, the methylcellulose-medium containing the same concentrations of valacyclovir or Rg3 was added to the appropriate wells. After 48 hours, plaques were fixed, stained and counted.

HSV-1 [3] = assay: Time studies of HSV-1 inhibition (PrestoBlue); format: cell-based, herpes simplex virus type 1; conditions: Rg3 50 μM
Description: Time Studies. For virus inhibition studies described above, reagent 20(S)-Rg3 and virus were added to cells simultaneously. To evaluate the potential mode of action of Rg3, various combinations of valacyclovir, Rg3 and HSV-1 were tested at different time periods. The following combinations were evaluated at both one hour and four hours: • Virus applied to cells first (for one hour or four hours), followed by addition of valacyclovir, Rg3 or both valacyclovir and Rg3 to the cells; • Valacyclovir or Rg3 or both valacyclovir and Rg3 applied to cells first (for one or four hours), followed by virus; • Valacyclovir or Rg3 incubated together with virus first for one or four hours then added to cells.
All procedures described for evaluation of virus inhibition were followed in identical fashion as outlined for the PrestoBlue procedure except valacyclovir was used at a constant concentration of 16 μM and 20(S)-Rg3 at 50 μM.

HSV-1 [4] = assay: Mouse susceptibility study, lethal HSV-1 infection; format: in vivo, BALB/c mice; conditions: for mortality: BALB/c mice, lethal dose HSV-1
Description: Mouse Susceptibility Study. BALB/c mice and the HSV-1, MacIntyre strain, ATCC VR-539, were used to determine the effectiveness of the 20(S)-Rg3 ginsenoside in preventing mortality in mice caused by infection of HSV-1. On day 1 of the study, four groups consisting of four mice each were injected intraperitoneally with 800,000 PFU of HSV-1, MacIntyre strain, ATCC VR-539. Three of the groups were treated daily with 1 mg/kg, 3 mg/kg, or 10 mg/kg intraperitoneal injections of the 20(S)-Rg3 ginsenoside and one group in the study received no treatment.

normal WI 38 cells = conditions: 120 μM; cited from earlier work

For CC(C)=CCC[C@](C)(O)C1CC[C@]2(C)C1[C@H](O)CC1[C@@]3(C)CC[C@H](O[C@@H]4OC(CO)[C@@H](O)[C@@H](O)C4O[C@@H]4OC(CO)[C@@H](O)[C@@H](O)C4O)C(C)(C)C3CC[C@]12C (stereo partly drawn) [20(S)-Rg3, 20(S)-ginsenoside-Rg3], the “Percent Cell Death” value (Vero cells; 50 μM) was “(13.0 ± 3.1) %”, the “Percent Cell Death” value (Vero cells; 100 μM) was “(14.3 ± 4.5) %” and the “Percent Cell Death” value (Vero cells; 125 μM) was “(22.3 ± 1.8) %”. The “Percent Cell Death” value (Vero cells; 250 μM) was “(28.7 ± 1.4) ^1) %”, the IC50 (Vero cells; Chlorocebus sabaeus, Vero, read-out: IC50 against the host Vero cells (toxicity)) was about 400 µM and the “Percent Inhibition of HSV-1” value (HSV-1 [1]; 50 μM, ± standard error) was 82.3 ± 3.5%. For the same molecule, the “Percent Inhibition of HSV-1” value (HSV-1 [1]; 100 μM, ± standard error) was “nearly completely inhibited”, the inhibition at 25 µM (HSV-1 [1]; Human alphaherpesvirus 1, Vero, 25 μM, ± standard error, read-out: Percent Inhibition of HSV-1) was 11 ± 2.6% and the inhibition at 50 µM (HSV-1 [1]; Human alphaherpesvirus 1, Vero, 50 μM, ± standard error, read-out: Percent Inhibition of HSV-1) was 80%. For the same molecule, the inhibition at 100 µM (HSV-1 [1]; Human alphaherpesvirus 1, Vero, 100 μM, ± standard error, read-out: Percent Inhibition of HSV-1) was 90.3 ± 9.9%, the IC50 (HSV-1 [1]; Human alphaherpesvirus 1, Vero, two-fold dilutions, linear regression, read-out: IC50 against HSV-1) was about 35 µM and the “Percent Reduction of plaques compared to the control” value (HSV-1 [2]) was 97.3%. The “Number of Plaques” value (HSV-1 [2]) was 1.5 ± 0.3, the “Number of Plaques” value (HSV-1 [2]; listed as Rg3) was 1.5±0.3 and the “Percent Inhibition of HSV-1” value (HSV-1 [3]; HSV-1 incubated with compound(s) 4 hours prior to addition to cells, valacyclovir 16 μM) was “over 110%”. For the same molecule, the “Percent Inhibition of HSV-1” value (HSV-1 [3]; HSV-1 incubated with compound(s) 4 hours prior to addition to cells, valacyclovir 16 μM, listed as Rg3) was 113.7±14.8%, the “Percent Inhibition of HSV-1” value (HSV-1 [3]; cells pretreated with compound 4 hours prior to HSV-1 addition) was 90.1±11.1% and the “Percent Inhibition of HSV-1” value (HSV-1 [3]; virus present on cells 4 hours prior to compound addition) was 50.7±4.4%. For the same molecule, the mortality (HSV-1 [4]; 1 mg/kg daily intraperitoneal) was 0%, the mortality (HSV-1 [4]; 3 mg/kg daily intraperitoneal) was 0% and the mortality (HSV-1 [4]; 10 mg/kg daily intraperitoneal) was 0%. The signs of stress (HSV-1 [4]; daily 1 mg/kg, 3 mg/kg or 10 mg/kg groups, duration of the study) was “never showed any signs of stress” and the “effect on normal WI 38 cells” value (normal WI 38 cells) was “no effect”.

From US11980648B2, “Compositions including ginsenoside 20(S)-Rg3 and methods of using ginsenoside 20(S)-Rg3 to inhibit alpha herpesvirus” (MIDDLE TENNESSEE STATE UNIVERSITY, priority 2020, dated 2024)
